Data as given in US11014966B2, “Compounds and therapeutics uses thereof” (priority 2016, dated 2021).

Legend:
[1] = system: E. coli K12; type: cell-based; conditions: 20 μM compound, human IgM M86 antibody 25 μg/mL, FC500, Method 1
Description: Antibody Recruitment Assay by Flow Cytometry Using Anti-Alpha-Galactosyl IgM Antibody
A secondary FITC labelled anti-human IgM antibody was used to detect binding of anti-alpha-galactosyl to the compound.
(§1) The assays were carried out in polystyrene 96-well U bottom plates (Costar). The 96-well plates were pre-blocked with casein blocking buffer (Thermo Fisher 37528) and then washed three times with (HBSS+/+) (Life Technologies 14025-050) prior to assay. E. coli K12 (Public Health England, NCTC 10538) were grown in LB broth (Fisher BP1426-500) to late exponential phase. Subsequently, the bacteria were centrifuged at 10 000 rpm for 5 minutes and resuspended in HBSS+/+ at a bacterial density of 2*10^9 CFU/mL. […] After a final wash of 3×200 μL HBSS+/+ the bacteria were resuspended in 200 μL HBSS+/+ and evaluated on a FC500 (Beckman Coulter). Bacteria were live gated in the FL-4 channel and median fluorescent shift was recorded in the FL-1 channel. Data from all samples were analysed in the Kaluza software package (Beckman Coulter). […]
(§2) The fold shift over background was calculated by dividing the Median Fluorescent Intensity obtained in the presence 20 μM Examples by the Median Fluorescence Intensity obtained in the absence of Examples. The shift in fluorescence intensity (FITC) occurs due to the binding event at each end of the molecule.

[2] = system: E. coli K12; type: cell-based; conditions: 20 μM compound, anti-alpha galactosyl IgG purified from human IVIG, 42 μg/mL
Description: Antibody Recruitment Assay by Flow Cytometry Using Anti Alpha-Galactosyl IgG Antibody
A secondary FITC labelled anti-human IgG antibody was used to detect binding of alpha-galactosyl to the compound.
as §1, with “and resuspended HBSS+/+ at” for “and resuspended in HBSS+/+ at”
as §2

SMILES: CCCCCCCCC(=O)N[C@@H](CCNC(=O)c1cc(OCC(=O)NCCCO[C@@H]2OC(CO)[C@@H](O[C@@H]3OC(CO)[C@H](O)C(O[C@H]4OC(CO)[C@H](O)C(O)C4O)C3O)C(O)C2NC(C)=O)cc(-c2cc(OCC(=O)NCCCO[C@@H]3OC(CO)[C@@H](O[C@@H]4OC(CO)[C@H](O)C(O[C@H]5OC(CO)[C@H](O)C(O)C5O)C4O)C(O)C3NC(C)=O)cc(OCC(=O)NCCCO[C@@H]3OC(CO)[C@@H](O[C@@H]4OC(CO)[C@H](O)C(O[C@H]5OC(CO)[C@H](O)C(O)C5O)C4O)C(O)C3NC(C)=O)c2)c1)C(=O)N[C@H](C(=O)N[C@@H](CCN)C(=O)N[C@H]1CCNC(=O)[C@H]([C@@H](C)O)NC(=O)[C@H](CCN)NC(=O)[C@H](CCN)NC(=O)[C@H](CC(C)C)NC(=O)[C@@H](Cc2ccccc2)NC(=O)[C@H](CCN)NC1=O)[C@@H](C)O (some centres unmarked) [Example 10]
- Anti-alpha galactosyl IgM recruitment at 20 μM (Median Fold shift over vehicle) [1]: 2 fold
- Anti-alphagalactosyl IgG recruitment at 20 μM (Median Fold shift over vehicle) [2]: 1 fold
